This is an account of results in patent publication US4592997A, “Process for the detection of the presence of an allergy and for the specific detection of the allergen responsible for the allergy” (Boehringer Mannheim GmbH, priority 1982, dated 1986).

Peptide text beside a SMILES is read from it. * marks the point of attachment. pNA = O=[N+]([O-])c1ccc(N*)cc1; Tos = Cc1ccc(S(=O)(=O)*)cc1; Cbz = O=C(OCc1ccccc1)*

Test [1] relates to protease liberated from leukocytes after anti-IgE stimulation. The test can be described thus: Splitting of chromogenic substrates by the protease liberated from leukocytes. In kind it is biochemical, human. As to the method: (§1) Two 0.9 ml. amounts of cell suspension were each transferred to a polyethylene test tube, mixed with 0.4 ml. tris buffer mixture (pH 7.6) and brought to 37° C. in a water-bath. To one sample, there was added 0.1 ml. of anti-IgE solution (Behring-Werke, No. OTNP 04/05, diluted 1:500 with tris buffer mixture; pH 7.6) and to the other sample (the control) there was pipetted 0.1 ml. of tris buffer mixture (pH 7.6) and to both samples there was added 0.1 ml. calcium chloride solution (4 mmol/liter in isotonic sodium chloride solution; pH 7.6). The two samples were kept for 60 minutes at 37° C., then each was mixed with 0.5 ml. ice-cold EDTA solution (0.1 mol/liter in isotonic sodium chloride solution; pH 7.6) and centrifuged for 10 minutes at 4° C., and at 30000 g, the supernatant being pipetted off immediately after stopping the centrifuge.
To 0.5 ml of the supernatant was added 0.5 ml. of 1.5 mmol/l. Chromozym TH solution (1 bottle BM 199664 dissolved in 5 ml. water). The extinction difference between the two samples was determined after 1, 2 and 3 hours at 405 nm.
From two 0.9 ml. amounts of leukocyte suspension obtained according to Example 1.1 from the blood of a healthy donor, there was obtained protease according to Example 1.2, after anti-IgE stimulation, as centrifuge supernatant. The testing of the protease took place as in Example 1.3 but in the case of one sample, instead of Chromozym TH, there was added an equimolar amount of CBO-Gly-Pro-Arg-pNA. Within the first 3 hours equal ΔE/h values (ΔE/h=0.067) were measured.
The activity of two samples treated in parallel according to Example 1 was determined with Chromozym TH and with an equimolar amount of Chromozym PL. With Chromozym PL, there was found ΔE/h=0.052 and with Chromozym TH ΔE/h=0.048.
The protease activity of two samples treated in parallel according to Example 1 was determined with Chromozym TH and with an equimolar amount of S 2238. With S 2238 there was determined ΔE/h=0.037 and with Chromozym TH ΔE/h=0.048.

Test [2] relates to leukocytes. The test can be described thus: Protease liberation from leukocytes by anti-IgE or allergen, measured with Chromozym TH (Example 1 method). Format: cell-based, human. The note with it: for allergy towards the substance shown with the process (in words): general statement. On the procedure: 60 ml. venous blood of a healthy donor were carefully mixed with 30 ml. of a dextran mixture (dextran with average M.W. of 75000 2%; D-glucose 2%, EDTA 20 mmol/liter; gelatine 0.07%) in a polyethylene beaker and transferred to a siliconised separating funnel. After leaving to stand for 60 to 90 minutes at room temperature, the supernatant containing the leukocytes (about 50 ml.) was separated off and mixed with 50 ml. tris buffer mixture of pH 7.6 (tris 22 mmol/liter; sodium chloride 0.12 mol/liter; potassium chloride 5 mmol/liter; gelatine 0.05%; EDTA 1 mmol/liter; D-glucose 0.1%) and centrifuged for 15 minutes at 800 g. After decanting, the cells were washed twice in that, in each case, they were again suspended in 50 ml. of the same buffer mixture (pH 7.6) and, in each case, centrifuged for 15 minutes at 800 g. The cells were then suspended in 10 ml. of the same buffer mixture.
as §1
To 0.5 ml of the supernatant was added 0.5 ml. of 1.5 mmol/l. […] The extinction difference between the two samples was determined after 1, 2 and 3 hours at 405 nm.

Test [3] relates to new protease from leukocytes. The test can be described thus: Specific inhibitability of the new protease from leukocytes. Format: biochemical, human. Particulars: new leukocyte protease.
In test [4] the test system is kallikrein-like protease from leukocytes. The note with it: cited from earlier work.
The mark [5] stands for this setting: Example 5, samples treated according to Example 1, equimolar substrate.
The mark [6] stands for this setting: Example 4, samples treated according to Example 1, equimolar substrate.
[7] abbreviates: Example 3, healthy donor, after anti-IgE stimulation, first 3 hours, equimolar substrate.

With `NC(N)=NCCC[C@H](NC(=O)[C@@H]1CCCCN1C(=O)[C@H](N)Cc1ccccc1)C(=O)Nc1ccc([N+](=O)[O-])cc1` [S 2238, Phe-Pip-Arg-pNA], the “ΔE/h with the substrate” value in test [1] (setting [5]) was determined as 0.037 h⁻¹.
In the case of `Cc1ccc(S(=O)(=O)NCC(=O)N2CCC[C@H]2C(=O)N[C@@H](CCCCN)C(=O)Nc2ccc([N+](=O)[O-])cc2)cc1` [Chromozym PL, Tos-Gly-Pro-Lys-pNA] (Tos-Gly-Pro-Lys-pNA), the “ΔE/h with the substrate” value in test [1] (setting [6]) was 0.052 h⁻¹.
For `N=C(N)NCCC[C@H](NC(=O)[C@@H]1CCCN1C(=O)CNC(=O)OCc1ccccc1)C(=O)Nc1ccc([N+](=O)[O-])cc1` [CBO-Gly-Pro-Arg-pNA, reference compound] (Cbz-Gly-Pro-Arg-pNA), the “ΔE/h with the substrate” value in test [1] (setting [7]) came to 0.067 h⁻¹.
Consider `CC(=O)O.Cc1ccc(S(=O)(=O)NCC(=O)N2CCC[C@H]2C(=O)N[C@@H](CCCNC(=N)N)C(=O)Nc2ccc([N+](=O)[O-])cc2)cc1` [Chromozym TH, tosyl-glycyl-prolyl-arginine-p-nitroanilide acetate] (Tos-Gly-Pro-Arg-pNA), for which the “ΔE/h with the substrate” value in test [1] (setting [7]) was 0.067 h⁻¹; in test [1] (setting [6]) it was 0.048 h⁻¹; in test [1] (setting [5]), 0.048 h⁻¹.
As to nickel, the “allergy towards the substance shown with the process (in words)” value in test [2] is “demonstrated”.
With `CC1(C)S[C@@H]2[C@H](NC(=O)[C@H](N)c3ccccc3)C(=O)N2[C@H]1C(=O)O` [ampicillin], the “additional extinction change ΔE/h versus unstimulated comparative sample” value in test [2] (donor allergic to ampicillin) came to 0.558 h⁻¹. The “measurement value ΔE/h of the stimulated sample” value in test [2] (donor allergic to ampicillin, 0.9 ml. leukocyte suspension) was determined as 0.893 h⁻¹. Further, the “allergy towards the substance shown with the process (in words)” value in test [2] is given as “demonstrated”.
With aprotinin [reference compound], the “specific inhibitability by aprotonin I50” value in test [3] is 1 mg/mL. Further, the “specific inhibitability by aprotinin I50” value in test [4] (known kallikrein-like protease) is on record as “about 50 μg./ml”.

B1: soya bean trypsin inhibitor (protein, UniProt P01070 25-205, looked up)
Trypsin inhibitor A: DFVLDNEGNPLENGGTYYILSDITAFGGIRAAPTGNERCPLTVVQSRNELDKGIGTIISSPYRIRFIAEGHPLSLKFDSFAVIMLCVGIPTEWSVVEDLPEGPAVKIGENKDAMDGWFRLERVSDDEFNNYKLVFCPQQAEDDKCGDIGISIDHDDGTRRLVVSKNKPLVVQFQKLDKESL
Take B1: in test [4] (0.1 mole/l. STI), the “inhibition by STI” value was 11%.
